Measurements as given in article PMC6108835, “Target-Based Discovery of an Inhibitor of the Regulatory Phosphatase PPP1R15B” (Cell, 2018).
Values joined by “and” are separate entries in the source; they are usually repeats but may differ in a detail not shown here. Identical values can stand only once. Peptide text beside a SMILES is read from it. * marks the point of attachment. Cbz = O=C(OCc1ccccc1)*

Columns and labels:
R15B [1] = target: T1, R15B (Homo sapiens, UniProt Q5SWA1); assay: R15B levels on immunoblots of HeLa cell lysates; type: cell-based; conditions: HeLa cells, Raphin1 10 μM; MG-132 10 μM; NSM-873 or CB-5083 1 μM
T1 construct: endogenous in cells; host or cells: HeLa
T1 sequence (Q5SWA1 1-713): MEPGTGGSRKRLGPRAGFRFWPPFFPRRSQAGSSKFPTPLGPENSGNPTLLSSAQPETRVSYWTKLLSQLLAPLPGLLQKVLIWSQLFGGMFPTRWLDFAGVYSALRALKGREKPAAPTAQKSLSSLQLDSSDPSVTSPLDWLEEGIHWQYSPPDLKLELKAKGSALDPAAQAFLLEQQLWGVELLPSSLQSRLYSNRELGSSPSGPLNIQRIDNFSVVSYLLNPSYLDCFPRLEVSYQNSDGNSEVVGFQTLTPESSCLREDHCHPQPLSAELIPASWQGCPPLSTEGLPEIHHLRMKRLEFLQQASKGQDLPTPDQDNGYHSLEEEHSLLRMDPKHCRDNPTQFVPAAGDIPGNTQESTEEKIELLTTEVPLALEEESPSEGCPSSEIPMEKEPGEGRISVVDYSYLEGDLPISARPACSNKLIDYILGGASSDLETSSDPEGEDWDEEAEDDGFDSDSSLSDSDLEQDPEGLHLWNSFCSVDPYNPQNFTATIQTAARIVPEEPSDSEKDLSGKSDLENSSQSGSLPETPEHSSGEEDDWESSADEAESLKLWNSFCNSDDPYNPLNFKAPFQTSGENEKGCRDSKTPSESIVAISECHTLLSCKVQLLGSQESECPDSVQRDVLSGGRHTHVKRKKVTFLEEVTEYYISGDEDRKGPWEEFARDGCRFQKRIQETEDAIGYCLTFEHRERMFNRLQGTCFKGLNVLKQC
Protocol: HeLa or MEF cells (90,000 cells/mL) were plated in 12-well plates (1 mL/well). The following day cells were treated as indicated; the medium was removed, fresh medium containing compound added and incubated at 37°C for the times indicated. The time course was performed in reverse order to facilitate collecting all samples at the same time. At the end of treatment cells were washed two times with ice-cold PBS and lysed in 150 μL Laemmli Buffer. […] Proteins were transferred to the nitrocellulose membrane using the iBlot 2 system (ThermoFisher Scientific). Membrane was blocked in 5% skimmed milk for 30 min and then probed with primary antibodies followed by incubation with the appropriate horseradish peroxidase-conjugated secondary antibodies (Promega). Proteins were visualized using ECL Prime (GE Healthcare) and imaged in the Chemi-Smart 5000 (Vilber-Lourmat, France) or ChemiDoc Touch (BioRad). Bands were quantified using ImageJ (NIH, USA).

PP1c [2] = target: T2, PP1c (Homo sapiens, UniProt P36873); assay: PP1c catalytic activity assay (DiFMUP, EnzChek); conditions: his-PP1c 30 nM
T2 sequence (P36873 1-322): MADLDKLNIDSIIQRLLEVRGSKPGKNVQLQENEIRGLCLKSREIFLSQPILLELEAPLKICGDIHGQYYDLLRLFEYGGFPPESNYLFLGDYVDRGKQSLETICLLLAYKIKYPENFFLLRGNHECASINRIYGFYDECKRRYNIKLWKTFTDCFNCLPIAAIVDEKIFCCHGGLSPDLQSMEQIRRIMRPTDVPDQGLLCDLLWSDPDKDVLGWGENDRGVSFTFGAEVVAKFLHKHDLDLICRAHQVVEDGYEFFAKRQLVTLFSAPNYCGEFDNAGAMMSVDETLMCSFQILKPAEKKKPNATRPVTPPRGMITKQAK
Protocol: Residual activity of PP1c was measured using the EnzChek Phosphatase Assay Kit (ThermoFisher Scientific) according to the supplier’s instructions, with minor modifications.

[3] = target: T3, R15A-PP1c holophosphatase (R15A^325-636-PP1c) (Homo sapiens, UniProt O75807); assay: Holophosphatase SPR, compounds binding to reconstituted R15A-PP1c; conditions: for Binding to R15A-PP1c (in words): SPR, up to 25 μM
T3 construct: cDNAs encoding amino acids 325-636 of R15A and 340-698 of R15B were cloned into pMAL-c5x; made in house; host or cells: R15A: E. coli BL21-Gold (DE3) pLysS; bio-PP1c: Sf9 insect cells (baculovirus)
T3 sequence (O75807 325-636, stated change not applied): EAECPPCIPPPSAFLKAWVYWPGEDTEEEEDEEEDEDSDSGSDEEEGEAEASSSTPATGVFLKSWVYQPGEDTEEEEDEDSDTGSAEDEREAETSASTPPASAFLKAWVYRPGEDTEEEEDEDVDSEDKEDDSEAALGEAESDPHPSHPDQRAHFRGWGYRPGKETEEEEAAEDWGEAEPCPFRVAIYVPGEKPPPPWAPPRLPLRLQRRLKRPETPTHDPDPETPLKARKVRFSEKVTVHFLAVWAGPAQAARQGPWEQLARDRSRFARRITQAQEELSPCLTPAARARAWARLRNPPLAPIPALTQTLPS
T3 sequence (P36873 1-322 partner): as the sequence (P36873 1-322) above
Protocol: (§1) Small molecules were stored as 50 mM stock solutions in 100% DMSO. […] If necessary the concentration range was adjusted to accurately determine the KD depending on the initial results. […] This was followed by 1 min stabilization period, to wash off any unspecific binding. […] After each dilution series, the surface was regenerated using 3 M NaCl for 90 s. […] In order to be able to correct for small variations in DMSO concentration between samples, eight solvent samples ranging from 0.06 to 8% DMSO were injected every 50th cycle. The flow cell temperature was 20°C.

[4] = target: T4, R15B-PP1c holophosphatase (R15B^340-698-PP1c) (Homo sapiens, UniProt Q5SWA1); assay: Holophosphatase SPR, compounds binding to reconstituted R15B-PP1c; conditions: SPR, up to 25 μM
T4 construct: cDNAs encoding amino acids 325-636 of R15A and 340-698 of R15B were cloned into pMAL-c5x; made in house; host or cells: R15B: E. coli BL21-Gold (DE3) pLysS; bio-PP1c: Sf9 insect cells (baculovirus)
T4 sequence (P36873 1-322 partner limits assumed, one chain of several): as the sequence (P36873 1-322) above
Protocol: as §1

[5] = system: eIF2α phosphorylation (HeLa cells); assay: Protein analyses on immunoblots, HeLa cells; type: cell-based, human; conditions: unstressed, 10 μM, 0-10 h
Protocol: HeLa or MEF cells (90,000 cells/mL) were plated in 12-well plates (1 mL/well). The following day cells were treated as indicated; the medium was removed, fresh medium containing compound added and incubated at 37°C for the times indicated. The time course was performed in reverse order to facilitate collecting all samples at the same time. At the end of treatment cells were washed two times with ice-cold PBS and lysed in 150 μL Laemmli Buffer. Lysates were transferred to 1.5 mL eppendorf tubes, boiled at 95°C for 5 min, sonicated and resolved on Bolt SDS-PAGE 4%–12% Bis-Tris gels (ThermoFisher Scientific). Proteins were transferred to the nitrocellulose membrane using the iBlot 2 system (ThermoFisher Scientific). Membrane was blocked in 5% skimmed milk for 30 min and then probed with primary antibodies followed by incubation with the appropriate horseradish peroxidase-conjugated secondary antibodies (Promega). Proteins were visualized using ECL Prime (GE Healthcare) and imaged in the Chemi-Smart 5000 (Vilber-Lourmat, France) or ChemiDoc Touch (BioRad). Bands were quantified using ImageJ (NIH, USA). The following primary antibodies were used: e-IF2α-P (ThermoFisher Scientific (#44-728G), 1:1,000), e-IF2α (Abcam (#ab5369), 1:1,000), tubulin (Sigma-Aldrich (#T5168), 1:4,000), BiP (BD Biosciences PharMingen (#610978), 1:1,000), ATF4 (Santa Cruz Biotechnology (#sc-200), 1:500), Ppp1r15a (Proteintech (#10449-1-AP), 1:1,000), Ppp1r15b (Proteintech (#14634-1-AP), 1:1,000) and CHOP (ABR Affinity BioReagents (#MA1-250), 1:1,000).

HeLa cells = assay: Assessment of translation rates (35S-methionine), HeLa cells; type: cell-based, human; conditions: 10 μM; for Label (%), newly synthesized proteins (35S-methionine): HeLa, 0 h = 100
Protocol: HeLa or MEF cells (90,000 cells/mL) were plated in 12-well plates (1 mL/well). The following day cells were treated as indicated; the medium was removed, fresh medium containing compound added and incubated at 37°C for the times indicated. The time course was performed in reverse order to facilitate labeling all samples at the same time. After the treatment the cells were labeled with 100 μCi/mL ^35S-methionine (Hartmann Analytic) for 10 min at 37°C (300 μL fresh medium containing 3 μL ^35S-methionine was added to each well). Note that cells were not starved in methionine-free media before labeling with ^35S-methionine for monitoring protein synthesis. The labeled cells were then washed twice with ice-cold PBS and lysed in 120 μL Laemmli Buffer. Lysates were transferred to 1.5 mL eppendorf tubes, boiled at 95°C for 5 min, sonicated and resolved on Bolt SDS-PAGE 4%–12% Bis-Tris gels (ThermoFisher Scientific). Gels were then stained with InstantBlue (Expedeon) and after the gels had been imaged they were transferred to a 20% ethanol, 7% acetic acid, 4% glycerol solution for 10 min. This was to prevent the gels from cracking while drying. The gels were transferred to filter paper and dried using a gel dryer. The gels were then exposed to a Storage Phosphor Screen (GE Healthcare) and analyzed by phosphorimaging using a Typhoon Imager Scanner (GE Healthcare).

R15B [6] = target: T5, R15B (Homo sapiens, UniProt Q5SWA1); assay: Limited trypsin digestion of R15B; conditions: R15 3 μM, compound 100 μM, trypsin 5 nM, 5 min, 22°C
T5 construct: cDNAs encoding amino acids 325-636 of R15A and 340-698 of R15B were cloned into pMAL-c5x; made in house; host or cells: E. coli BL21-Gold (DE3) pLysS
Protocol: (§2) Reactions were initiated by addition of 5 nM of trypsin from bovine pancreas (Sigma-Aldrich), made up in PBS, and allowed to proceed for 5 min at 22°C, with shaking at 350 rpm. […] Proteins were visualized by staining with InstantBlue Protein Stain (Expedeon).

R15A = R15A (Homo sapiens, UniProt O75807); assay: Limited trypsin digestion of R15A; parameters: cDNAs encoding amino acids 325-636 of R15A and 340-698 of R15B were cloned into pMAL-c5x; made in house; host or cells: E. coli BL21-Gold (DE3) pLysS; conditions: R15 3 μM, compound 100 μM, trypsin 5 nM, 5 min, 22°C
Sequence of R15A (O75807 325-636, stated change not applied): as the sequence (O75807 325-636, stated change not applied) above
Protocol: as §2

PP1c [7] = target: T2, PP1c; assay: SPR, compounds binding to PP1c alone immobilized on streptavidin chip; parameters: cDNA encoding for human PP1cγ (aa 1-322) was cloned into two baculovirus transfer vectors; made in house; host or cells: Sf9 insect cells (baculovirus); conditions: PP1c immobilized on SA chip
Protocol: as §1

liver = assay: Oil Red O staining of liver (steatosis); type: in vivo, mouse; conditions: wild-type mice, single dose 40 mg/kg; Raphin1 also 2 mg/kg for 10 weeks
Protocol: Treatment- and test-naive C57BL/6J males and females were used. Mice received a single dose of Raphin1 or cycloheximide (CHX, Sigma-Aldrich) at 40 mg/kg at 3 months of age or were treated chronically with Raphin1 at 2 mg/kg from 4 weeks of age for 10 weeks before the analysis. Mice were culled by cervical dislocation, liver was extracted, fresh-frozen in the O.C.T. compound (VWR International) and kept at −80°C until use. Oil Red O staining was performed on 10 μm thick frozen cryosections (Leica CM1850). Sections were washed in 60% propanol and stained for 20 min at room temperature with filtered 0.33% Oil Red O solution (VWR International). After rinsing with distilled water sections were counterstained with hematoxylin (VWR, diluted 1:15) for 1 min. Images were acquired with a 40X objective using SCN400F scanner (Leica).

SMILES: Cc1cc2c(C(N)=O)cccc2n1-c1nc2c(c(NCc3ccccc3)n1)COCC2 [CB-5083]
- Effect of co-treatment on the Raphin1-induced decrease in R15B (R15B [1]): essentially abrogated

SMILES: COC[C@@H]([C@H](O)[C@H](O)C(=O)NCC[C@H](C)c1nc(/C=C/C[C@@H]2O[C@]3(C[C@@H](O)[C@@H]2C)O[C@H]([C@H](C[C@H](O)[C@H](C)[C@H](O)[C@H](C)/C=C(C)/C(C)=C/C=C/C(C)=C\C#N)OC)[C@H](OP(=O)(O)O)C3(C)C)co1)N(C)C [Calyculin A]
- Inhibition of PP1c (dephosphorylation of difluoro-4-methylumbelliferyl phosphate) (PP1c [2]): inhibited

SMILES: N=C(N)N/N=C/c1c(Cl)cccc1Cl [GBZ, Guanabenz]
- Binding to R15A-PP1c (in words) [3]: strongly bound
- Kd ([3]; holophosphatase reconstituted on SA chip, 20°C, mean ± SD, read-out: KD, steady-state affinity for R15A-PP1c): 122 nM and < 10000 nM
- Binding to R15B-PP1c (in words) [4]: did not bind or only weakly bound
- eIF2α phosphorylation [5]: no measurable effects
- Protein synthesis (in words) (HeLa cells; HeLa cells, unstressed): no measurable effects
- Label (%), newly synthesized proteins (35S-methionine) (HeLa cells; 1 h): 94%
- Label (%), newly synthesized proteins (35S-methionine) (HeLa cells; 2 h): 92%
- Label (%), newly synthesized proteins (35S-methionine) (HeLa cells; 5 h): 103%
- Label (%), newly synthesized proteins (35S-methionine) (HeLa cells; 7.5 h): 96%
- Label (%), newly synthesized proteins (35S-methionine) (HeLa cells; 10 h): 97%
- Protease sensitivity of R15B (limited proteolysis, conformational change) (R15B [6]): neither GBZ nor Sephin1 affected
- Inhibition of PP1c (dephosphorylation of difluoro-4-methylumbelliferyl phosphate) (PP1c [2]): did not inhibit
- Protease sensitivity of R15A (limited proteolysis, conformational change) (R15A): increased resistance to limited-proteolysis
- Binding to PP1c alone (in words) (PP1c [7]): did not measurably bind

SMILES: CC(C)C[C@@H](C=O)NC(=O)[C@H](CC(C)C)NC(=O)[C@H](CC(C)C)NC(=O)OCc1ccccc1 [MG-132] (Cbz-Leu-Leu-Leu-aldehyde)
- Effect of co-treatment on the Raphin1-induced decrease in R15B (R15B [1]): prevented

SMILES: Cc1cc(OCc2nnc(SC3CCCC3)n2-c2cccnc2)ccc1-c1ccc(S(C)(=O)=O)cc1 [NSM-873]
- Effect of co-treatment on the Raphin1-induced decrease in R15B (R15B [1]): essentially abrogated

SMILES: N=C(N)N/N=C/c1ncccc1Cl [compound C3]
- Binding to R15A-PP1c (in words) [3]: no detectable binding
- Binding to R15B-PP1c (in words) [4]: no detectable binding
- Binding to PP1c alone (in words) (PP1c [7]): no detectable binding

SMILES: C[C@@H]1C[C@@H]([C@H](O)CC2CC(=O)NC(=O)C2)C(=O)[C@@H](C)C1 [cycloheximide, Cycloheximide]
- Liver steatosis (Oil Red O) (liver): caused liver steatosis
